Test: in vitro
Conditions: human, hela cells, % viability

Structure (SMILES)	viability at 28.5 h, 10 µM
CN(C)Cc1cc(CN(C)C)c(O)c(CCc2ccccc2)n1 [CBK278316C]	90.9%
CCc1cc(=O)oc2cc(OC(=O)c3ccco3)ccc12 [CBK264657]	84.8%
COC(=O)c1ccccc1NC(=O)CC1Sc2ccccc2NC1=O (centres unmarked) [CBK269400]	90.2%
CCCC1C(C(N)=O)=C(C)NC(C)=C1C(N)=O [CBK019102]	105%
CCCCN1CC(C(=O)OCC)=C(O)C1=O [CBK028774]	110%
O=C(NCc1cc(C2CC2)[nH]n1)C1(c2ccccc2F)CC1 [CBK283140]	97.6%
COCc1ccc(CN2CCC3(CCc4ccccc4C(=O)N3)C2)o1 (centres unmarked) [CBK284651]	94.3%
O=C(Nc1ccc(S(=O)(=O)Nc2ccc(Cl)cc2)cc1)c1ccc(Cn2cc(Br)cn2)o1 [CBK265764]	108%
Cc1cccc(C(=O)N/N=C/c2ccoc2)c1O [CBK018727]	90.7%
CC(C)c1cc(C(=O)N2CCOCC2)c(NC(=O)c2cc(-c3cccnc3)nc3ccc(Br)cc23)s1 [CBK267763]	93.7%
Cc1ccc(-c2ncc(OCc3cccs3)nc2N)cc1C [CBK145146]	101%
Fc1ccc(NC(=S)NNC(=S)Nc2cccc3ccccc23)c(F)c1 [CBK266982]	89.8%
COc1cc(NC(=O)C2CCN(S(=O)(=O)c3cccs3)CC2)c(Cl)cc1C(=O)O [CBK297085]	99.7%
CC(C)c1ccc(/C=C/C(=O)NCc2ccc(NS(C)(=O)=O)cc2)cc1 [CBK161512]	97.8%
CCC(=O)NCc1csc(-c2ccccc2)n1 [CBK092344]	90.1%
COc1cncc(-c2cc(Nc3ccc(O)cc3)ncn2)c1 [CBK090752]	98%
O=[N+]([O-])c1ccccc1CN1CCN(Cc2cccc(Oc3ccccc3)c2)CC1 [CBK264307]	91.3%
Cc1nn(-c2ccccc2)c2sc(C(=O)N3CCN(C(=O)c4ccccc4)CC3)cc12 [CBK297554]	96.1%
c1coc(-c2cn3ccnc3c(Nc3ccc4[nH]ccc4c3)n2)c1 [CBK037361]	91.9%
CC(C)[C@H]1CN(Cc2ccco2)CCN1Cc1ccccn1 [CBK284275]	112%
FC(F)(F)c1cc(-c2cn3ccnc3c(NCCc3cccnc3)n2)cc(C(F)(F)F)c1 [CBK066146]	98.1%
Nc1c(Cl)cc(NC(=O)CCCC(=O)O)cc1Cl [CBK263957]	91%

Structure (SMILES)	viability at 28.5 h, 10 µM
O=c1[nH][nH]c2nc(O)cc(C(F)(F)F)c12 [CBK027081]	109%
O=S(=O)(NCC(c1ccccc1)N1CCNCC1)c1ccccc1 (centres unmarked) [CBK262813]	105%
COc1ccccc1CC(=O)N1CCCC1c1nc2ccccc2[nH]1 (centres unmarked) [CBK285517]	94.6%
Cn1cc2c(n1)[C@H]1CN(C(=O)c3cc(C(F)(F)F)nn3C)C[C@H]1C2 [CBK283400]	93.8%
O=C(NCCn1cc[nH]c1=O)c1cnc(-c2ccc(Cl)cc2)c(-c2ccc(O)cc2)c1 [CBK036766]	92%
CC(=O)N1CCC2(CCCC[C@H]3CN(Cc4coc(C)n4)CC[C@@H]3NC(=O)CNC2=O)CC1 [CBK292165]	101%
Cc1[nH]c2cc(C(=O)NCCn3nccc3C)ccc2c1C [CBK283313]	92.8%
CN1CCN(c2cc(N3CCN(C)CC3)c([N+](=O)[O-])cc2C2Nc3ccc4ccccc4c3C3=C2C(=O)CC(C)(C)C3)CC1 (centres unmarked) [CBK262381]	93.9%
O=C(O)c1ccc(CN2CCOC[C@H]2c2nc(-c3ccc(F)cc3)c[nH]2)cc1 [CBK289304]	91.2%
CCOC(=O)CNC(=O)C1Cc2ccccc2CN1S(=O)(=O)c1cccs1 (centres unmarked) [CBK265575]	103%
CCn1c(=O)[nH]c(=O)c2cnc(-c3ccc(OC)cc3)nc21 [CBK291259]	107%
O=C(CNC(=O)c1cccc(F)c1)N/N=C1/C(=O)N(Cc2ccc3c(c2)OCO3)c2ccccc21 [CBK263519]	102%
O=C(O)CCC(CCC(=O)O)([N+](=O)[O-])[N+](=O)[O-] [CBK260956]	93.9%
C=CCn1c(SCc2nnc(-c3ccccc3)o2)nnc1C(O)c1ccccc1 (centres unmarked) [CBK267368]	110%
CCOc1cc(NC2CCN(C(=O)CC3CCCCC3)CC2)ncn1 [CBK305506]	104%
CN(C)CCNCc1ccccc1OC1CCCC1 [CBK278214C]	111%
CC(C)=NNC(=O)Nc1nonc1N [CBK027368]	99.2%
CC(Nc1cc(N2CCN(S(=O)(=O)N(C)C)CC2)ccc1[N+](=O)[O-])C12CC3CC(CC(C3)C1)C2 (centres unmarked) [CBK265479]	115%
O=C(O)CCCCCN1C(=O)C2CC=CCC2C1=O (centres unmarked) [CBK286534]	82.5%
FC(F)(F)c1ccc(N2CCNCC2)nc1SCc1ccccc1Cl [CBK003964A]	98.2%
CSc1nn(C)c(=O)c2c3c(sc12)CCC3 [CBK019796]	83.7%
CC(=O)N1CCC(N2CC[C@H](c3nnc(C(C)(C)C)o3)C2)CC1 [CBK289404]	82.4%

— PMC12040169 (PLOS Biology, 2025)
